# Data taken from ChEMBL document CHEMBL1139694, “N,N'-Diarylcyanoguanidines as antagonists of the CXCR2 and CXCR1 chemokine receptors” (Bioorg Med Chem Lett, 2006).
# Columns and labels:
# [1] = molecular target: T1, C-X-C chemokine receptor type 2 (Homo sapiens, UniProt P25025); assay: Displacement of [125I]IL8 from CXCR2 expressed in CHO cells; assay type: cell-based
# T1 sequence (P25025 whole entry): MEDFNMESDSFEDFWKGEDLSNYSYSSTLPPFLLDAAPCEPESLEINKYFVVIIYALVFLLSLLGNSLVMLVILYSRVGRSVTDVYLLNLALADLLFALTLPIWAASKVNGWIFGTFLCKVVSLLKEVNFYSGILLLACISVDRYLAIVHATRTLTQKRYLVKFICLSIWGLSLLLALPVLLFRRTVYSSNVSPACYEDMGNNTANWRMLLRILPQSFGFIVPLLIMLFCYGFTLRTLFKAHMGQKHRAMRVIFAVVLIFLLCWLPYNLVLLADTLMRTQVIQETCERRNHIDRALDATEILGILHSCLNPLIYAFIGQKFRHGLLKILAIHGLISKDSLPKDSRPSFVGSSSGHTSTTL
# [2] = molecular target: T2, C-X-C chemokine receptor type 1 (Homo sapiens, UniProt P25024); assay: Displacement of [125I]IL8 from CXCR1 expressed in CHO cells; assay type: cell-based
# T2 sequence (P25024 whole entry): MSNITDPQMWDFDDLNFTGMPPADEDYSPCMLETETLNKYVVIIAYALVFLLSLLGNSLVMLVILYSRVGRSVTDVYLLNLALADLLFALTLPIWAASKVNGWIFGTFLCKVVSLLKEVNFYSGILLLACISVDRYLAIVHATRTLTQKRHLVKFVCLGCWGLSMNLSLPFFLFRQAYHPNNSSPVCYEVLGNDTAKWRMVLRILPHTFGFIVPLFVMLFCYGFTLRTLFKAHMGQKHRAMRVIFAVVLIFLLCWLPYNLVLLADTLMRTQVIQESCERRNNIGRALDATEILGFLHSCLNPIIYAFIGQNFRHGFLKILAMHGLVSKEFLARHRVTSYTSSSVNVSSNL
# [3] = Dissociation constant, pKa of the compound; assay type: physicochemical
# [4] = molecular target: Interleukin-8 receptors, CXCR1/CXCR2 (Homo sapiens) (UniProt P25025+P25024); assay: Selectivity for CXCR2 over CXCR1; assay type: protein assay
Structure (SMILES),IC50 [1],IC50 [2],pKa [3],Ratio IC50 [4]
CN(C)S(=O)(=O)c1c(Cl)ccc(N/C(=N/C#N)Nc2ccccc2-c2ccccc2)c1O,0.013 µM (antagonist),0.752 µM (antagonist),–,–
Cc1ccc(N=C(NC#N)Nc2ccccc2Br)c(O)c1S(=O)(=O)N(C)C,0.007 µM (antagonist),0.187 µM (antagonist),–,–
CC(C)c1ccccc1N/C(=N\C#N)Nc1ccc(Cl)c(S(=O)(=O)N(C)C)c1O,0.112 µM (antagonist),7.29 µM,–,–
CN(C)S(=O)(=O)c1c(C(F)(F)F)ccc(N/C(=N/C#N)Nc2ccccc2Br)c1O,0.007 µM (antagonist),0.1 µM (antagonist),–,–
CCC(CC)(NS(=O)(=O)c1c(Cl)ccc(N/C(=N/C#N)Nc2ccccc2Br)c1O)N1C[C@@H](C)O[C@@H](C)C1,0.009 µM (antagonist),0.215 µM (antagonist),6.41,–
CCC(CC)(NS(=O)(=O)c1c(Cl)ccc(N=C(NC#N)Nc2ccccc2C)c1O)N1C[C@@H](C)O[C@@H](C)C1,0.017 µM (antagonist),1.08 µM,–,–
CCC(CC)(NS(=O)(=O)c1cccc(N/C(=N/C#N)Nc2ccccc2Br)c1O)N1CCOCC1,0.012 µM (antagonist),0.582 µM (antagonist),6.48,–
CN(C)S(=O)(=O)c1c(Cl)ccc(N=C(NC#N)Nc2ccccc2C(F)(F)F)c1O,0.012 µM (antagonist),0.411 µM (antagonist),–,–
CN(C)S(=O)(=O)c1c(Cl)ccc(N/C(=N/C#N)Nc2ccccc2Br)c1O,0.005 µM (antagonist),0.055 µM (antagonist),–,–
CN(C)S(=O)(=O)c1c(Cl)ccc(N=C(NC#N)Nc2ccccc2F)c1O,0.009 µM (antagonist),1.55 µM,–,–
CCC(CC)(NS(=O)(=O)c1c(Cl)ccc(N/C(=N/C#N)Nc2ccccc2Br)c1O)N1CCC(N)CC1,0.022 µM (antagonist),0.188 µM (antagonist),–,–
CN(C)S(=O)(=O)c1c(Cl)ccc(N/C(=N/C#N)Nc2cccc(Cl)c2F)c1O,–,–,–,> 200
CCc1ccccc1NC(=Nc1ccc(Cl)c(S(=O)(=O)N(C)C)c1O)NC#N,0.015 µM (antagonist),0.512 µM (antagonist),–,–
CCC(CC)(NS(=O)(=O)c1c(C)ccc(N=C(NC#N)Nc2ccccc2Br)c1O)N1CCOCC1,0.006 µM (antagonist),0.104 µM (antagonist),–,–
CCC(CC)(NS(=O)(=O)c1c(Cl)ccc(N/C(=N/C#N)Nc2ccccc2Br)c1O)N1CCC[C@@H]1C(=O)O,0.016 µM (antagonist),0.022 µM (antagonist),–,–
CN(C)S(=O)(=O)c1c(F)ccc(N/C(=N/C#N)Nc2ccccc2Br)c1O,0.004 µM (antagonist),0.192 µM (antagonist),–,–
Cc1ccccc1NC(=Nc1ccc(Cl)c(S(=O)(=O)N(C)C)c1O)NC#N,0.017 µM (antagonist),0.378 µM (antagonist),–,–
CN(C)S(=O)(=O)c1c(Cl)ccc(N/C(=N/C#N)Nc2ccccc2OCc2ccccc2)c1O,0.009 µM (antagonist),0.293 µM (antagonist),–,–
CN(C)S(=O)(=O)c1c(Cl)ccc(N=C(NC#N)Nc2cccc(Cl)c2F)c1O,0.029 µM (antagonist),6.2 µM,–,–
